Read-outs that look alike come from different tables or passages of the source.
Legend:
Format in all cases: in vivo
corn rootworm = assay: Mite/insect screen, CRW; conditions: percent mortality, read-out: CRW RESULTS %
Summary of the method: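 Compounds were dissolved in 50:50 acetone/alcohol containing sulfonate/nonionic emulsifier blends (23 g/L plus 13 g/L), then diluted with water to the test concentrations. Percent mortality was scored after standard exposure periods.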

[1] = tested on: Venturia inaequalis (apple scab); assay: Test 1 greenhouse foliar spray screen, apple scab on apple seedling; conditions: disease control rating, foliar spray on apple seedling, 400 ppm (+++ at 100 ppm)
[2] = tested on: Erysiphe graminis tritici (powdery mildew); assay: Test 1 greenhouse foliar spray screen, powdery mildew on wheat; conditions: for POWD MDEW: disease control rating, foliar spray on wheat, 400 ppm (+++ at 100 ppm)
[3] = tested on: Septoria tritici (leaf blotch); assay: Test 1 greenhouse foliar spray screen, leaf blotch on wheat; conditions: disease control rating, foliar spray on wheat, 400 ppm (+++ at 100 ppm)
[4] = tested on: Twospotted spider mites (Tetranychus urticae Koch); assay: Mite/insect screen, SM; conditions: Tetranychus urticae, percent mortality, read-out: SM RESULTS %
Summary of the method: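 Activity is expressed as percent mortality at the indicated spray concentrations. Plants are sprayed to runoff on upper and lower leaf surfaces with aqueous dilutions of an acetone/alcohol emulsifiable formulation, then dried for one hour.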

[5] = tested on: melon aphids (Aphis gossypii Glover); assay: Mite/insect screen, MA; conditions: Aphis gossypii, percent mortality, read-out: MA RESULTS %
Summary of the method: (§1)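 Compounds dissolved in 50:50 acetone/alcohol containing sulfonate/nonionic emulsifier blends, then diluted with water to the indicated concentrations. Leaves sprayed on both surfaces to runoff at 10 psi and dried one hour. Percent mortality scored after standard exposure periods.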

[6] = tested on: Puccinia recondita tritici (leaf rust); assay: Test 1 greenhouse foliar spray screen, leaf rust on wheat; conditions: for LEAF RUST: disease control rating, foliar spray on wheat, 400 ppm (+++ at 100 ppm)
[7] = tested on: Pseudoperonospora cubensis (downy mildew); assay: Test 1 greenhouse foliar spray screen, downy mildew on squash; conditions: for DOWN MDEW: disease control rating, foliar spray on squash, 400 ppm (+++ at 100 ppm)
[8] = tested on: southern armyworm (Spodopetra eridania Cramer); assay: Mite/insect screen, SAW; conditions: Spodoptera eridania, percent mortality, read-out: SAW RESULTS %
Summary of the method: as §1

[9] = tested on: Botrytis cinerea (gray mold); assay: Test 1 greenhouse foliar spray screen, gray mold on grape berries; conditions: for GRAY MOLD: disease control rating, spray on grape berries, 400 ppm (+++ at 100 ppm)
[10] = tested on: Pyricularia oryzae (rice blast); assay: whole plant or invertebrate; conditions: for RICE BLAST: disease control rating, foliar spray on rice, 400 ppm (+++ at 100 ppm)
[11] = foliar, rate 200 ppm, foliar spray on squash
[12] = foliar, rate 400 ppm, foliar spray on squash

COc1ccc2nccc(NCCc3ccccc3)c2c1 [Example 1, 6-methoxy-N-(2-phenylethyl)-4-quinolineamine]
mortality at 12 ppm (corn rootworm; CRW RATE 12.00 PPM): 0%
APPL SCAB [1]: - (0-19% control at 400 ppm)
POWD MDEW [2]: + (20-89% control at 400 ppm)
LEAF BLOT [3]: - (0-19% control at 400 ppm)
mortality at 200 ppm ([4]; SAW, SM & MA RATE 200 PPM): 0%
mortality at 200 ppm ([5]; SAW, SM & MA RATE 200 PPM): 0%
LEAF RUST [6]: + (20-89% control at 400 ppm)
DOWN MDEW [7]: ++ (90-100% control at 400 ppm)
mortality at 200 ppm ([8]; SAW, SM & MA RATE 200 PPM): 0%
GRAY MOLD [9]: + (20-89% control at 400 ppm)
RICE BLAST [10]: + (20-89% control at 400 ppm)

CCc1ccc2nccc(NCCc3ccccc3)c2c1 [Example 3, 6-ethyl-N-(2-phenylethyl)-4-quinolinamine]
mortality at 12 ppm (corn rootworm; CRW RATE 12.00 PPM): 0%
APPL SCAB [1]: - (0-19% control at 400 ppm)
POWD MDEW [2]: - (0-19% control at 400 ppm)
LEAF BLOT [3]: - (0-19% control at 400 ppm)
mortality at 200 ppm ([4]; SAW, SM & MA RATE 200 PPM): 0%
mortality at 200 ppm ([5]; SAW, SM & MA RATE 200 PPM): 0%
LEAF RUST [6]: + (20-89% control at 400 ppm)
DOWN MDEW [7]: +++ (90-100% control at 100 ppm)
mortality at 200 ppm ([8]; SAW, SM & MA RATE 200 PPM): 0%
GRAY MOLD [9]: - (0-19% control at 400 ppm)
RICE BLAST [10]: ++ (90-100% control at 400 ppm)

CCN(CCc1ccccc1)c1ccnc2ccccc12 [Example 4, N-ethyl-N-(2-phenylethyl)-4-quinolinamine]
mortality at 12 ppm (corn rootworm; CRW RATE 12.00 PPM): 0%
APPL SCAB [1]: - (0-19% control at 400 ppm)
POWD MDEW [2]: + (20-89% control at 400 ppm)
LEAF BLOT [3]: - (0-19% control at 400 ppm)
mortality at 200 ppm ([4]; SAW, SM & MA RATE 200 PPM): 0%
mortality at 200 ppm ([5]; SAW, SM & MA RATE 200 PPM): 0%
LEAF RUST [6]: ++ (90-100% control at 400 ppm)
DOWN MDEW [7]: ++ (90-100% control at 400 ppm)
mortality at 200 ppm ([8]; SAW, SM & MA RATE 200 PPM): 0%
GRAY MOLD [9]: - (0-19% control at 400 ppm)
RICE BLAST [10]: + (20-89% control at 400 ppm)

Cc1cc(NCCc2ccccc2)c2ccccc2n1 [Example 6, 2-methyl-N-(2-phenylethyl)-4-quinolinamine]
mortality at 12 ppm (corn rootworm; CRW RATE 12.00 PPM): 0%
APPL SCAB [1]: - (0-19% control at 400 ppm)
POWD MDEW [2]: ++ (90-100% control at 400 ppm)
LEAF BLOT [3]: - (0-19% control at 400 ppm)
mortality at 200 ppm ([4]; SAW, SM & MA RATE 200 PPM): 0%
mortality at 200 ppm ([5]; SAW, SM & MA RATE 200 PPM): 0%
LEAF RUST [6]: + (20-89% control at 400 ppm)
DOWN MDEW [7]: ++ (90-100% control at 400 ppm)
mortality at 200 ppm ([8]; SAW, SM & MA RATE 200 PPM): 0%
GRAY MOLD [9]: + (20-89% control at 400 ppm)
RICE BLAST [10]: + (20-89% control at 400 ppm)

FC(F)(F)c1ccc2c(NCCc3ccccc3)ccnc2c1 [Example 17, N-(2-phenylethyl)-7-(trifluoromethyl)-4-quinolinamine]
mortality at 12 ppm (corn rootworm; CRW RATE 12.00 PPM): 0%
APPL SCAB [1]: - (0-19% control at 400 ppm)
POWD MDEW [2]: ++ (90-100% control at 400 ppm)
LEAF BLOT [3]: - (0-19% control at 400 ppm)
mortality at 200 ppm ([4]; SAW, SM & MA RATE 200 PPM): 0%
mortality at 200 ppm ([5]; SAW, SM & MA RATE 200 PPM): 0%
LEAF RUST [6]: ++ (90-100% control at 400 ppm)
DOWN MDEW [7]: ++ (90-100% control at 400 ppm)
mortality at 200 ppm ([8]; SAW, SM & MA RATE 200 PPM): 0%
GRAY MOLD [9]: - (0-19% control at 400 ppm)
RICE BLAST [10]: + (20-89% control at 400 ppm)

Brc1ccc(CCNc2ccnc3ccccc23)cc1 [Example 18, N-[2-(4-bromophenyl)ethyl]-4-quinolinamine]
mortality at 12 ppm (corn rootworm; CRW RATE 12.00 PPM): 0%
APPL SCAB [1]: - (0-19% control at 400 ppm)
POWD MDEW [2]: + (20-89% control at 400 ppm)
LEAF BLOT [3]: - (0-19% control at 400 ppm)
mortality at 200 ppm ([4]; SAW, SM & MA RATE 200 PPM): 0%
mortality at 200 ppm ([5]; SAW, SM & MA RATE 200 PPM): 0%
LEAF RUST [6]: ++ (90-100% control at 400 ppm)
DOWN MDEW [7]: ++ (90-100% control at 400 ppm)
mortality at 200 ppm ([8]; SAW, SM & MA RATE 200 PPM): 0%
GRAY MOLD [9]: + (20-89% control at 400 ppm)
RICE BLAST [10]: ++ (90-100% control at 400 ppm)

Cc1ccc(CCNc2ccnc3ccccc23)cc1 [Example 19, N-[2-(4-methylphenyl)ethyl]-4-quinolinamine]
mortality at 12 ppm (corn rootworm; CRW RATE 12.00 PPM): 0%
APPL SCAB [1]: - (0-19% control at 400 ppm)
POWD MDEW [2]: + (20-89% control at 400 ppm)
LEAF BLOT [3]: - (0-19% control at 400 ppm)
mortality at 200 ppm ([4]; SAW, SM & MA RATE 200 PPM): 0%
mortality at 200 ppm ([5]; SAW, SM & MA RATE 200 PPM): 0%
LEAF RUST [6]: ++ (90-100% control at 400 ppm)
DOWN MDEW [7]: +++ (90-100% control at 100 ppm)
mortality at 200 ppm ([8]; SAW, SM & MA RATE 200 PPM): 0%
GRAY MOLD [9]: - (0-19% control at 400 ppm)
RICE BLAST [10]: ++ (90-100% control at 400 ppm)

Clc1ccc(CCNc2ccnc3ccccc23)cc1 [Example 20, N-[2-(4-chlorophenyl)ethyl]-4-quinolinamine]
mortality at 12 ppm (corn rootworm; CRW RATE 12.00 PPM): 0%
APPL SCAB [1]: - (0-19% control at 400 ppm)
POWD MDEW [2]: + (20-89% control at 400 ppm)
LEAF BLOT [3]: - (0-19% control at 400 ppm)
mortality at 200 ppm ([4]; SAW, SM & MA RATE 200 PPM): 0%
mortality at 200 ppm ([5]; SAW, SM & MA RATE 200 PPM): 0%
LEAF RUST [6]: + (20-89% control at 400 ppm)
DOWN MDEW [7]: +++ (90-100% control at 100 ppm)
mortality at 200 ppm ([8]; SAW, SM & MA RATE 200 PPM): 0%
GRAY MOLD [9]: - (0-19% control at 400 ppm)
RICE BLAST [10]: + (20-89% control at 400 ppm)

CC(CNc1ccnc2ccccc12)c1ccccc1 (stereo not shown) [Example 21, N-(2-phenylpropyl)-4-quinolinamine]
mortality at 12 ppm (corn rootworm; CRW RATE 12.00 PPM): 0%
APPL SCAB [1]: - (0-19% control at 400 ppm)
POWD MDEW [2]: + (20-89% control at 400 ppm)
LEAF BLOT [3]: - (0-19% control at 400 ppm)
mortality at 200 ppm ([4]; SAW, SM & MA RATE 200 PPM): 0%
mortality at 200 ppm ([5]; SAW, SM & MA RATE 200 PPM): 0%
LEAF RUST [6]: + (20-89% control at 400 ppm)
DOWN MDEW [7]: ++ (90-100% control at 400 ppm)
mortality at 200 ppm ([8]; SAW, SM & MA RATE 200 PPM): 0%
GRAY MOLD [9]: - (0-19% control at 400 ppm)
RICE BLAST [10]: + (20-89% control at 400 ppm)

Fc1cccc2c(OC3CCCCC3c3ccccc3)ccnc12 (stereo not shown) [Example 295, 8-fluoro-4-(2-phenylcyclohexyloxy)quinoline]
mortality at 12 ppm (corn rootworm; CRW rate 12.00 ppm): 0%
mortality at 24 ppm (corn rootworm; CRW rate 24.00 ppm): 0%
pest or weed control at 400 ppm ([2]; Blumeria graminis, foliar, Test 1, foliar spray on wheat, disease control rating at 400 ppm / 100 ppm, read-out: POWD MDEW): 20 to 89%
mortality at 200 ppm [4, 11]: 0%
mortality at 400 ppm [4, 12]: 0%
mortality at 200 ppm [5, 11]: 0%
mortality at 400 ppm [5, 12]: 0%
pest or weed control at 400 ppm ([6]; Puccinia recondita, foliar, Test 1, foliar spray on wheat, disease control rating at 400 ppm / 100 ppm): 20 to 89%
pest or weed control at 400 ppm ([7]; Pseudoperonospora cubensis, foliar, Test 1, foliar spray on squash, disease control rating at 400 ppm / 100 ppm, read-out: DOWN MDEW): 90 to 100%
mortality at 200 ppm [8, 11]: 0%
mortality at 400 ppm [8, 12]: 0%
pest or weed control at 400 ppm ([9]; Botrytis cinerea, foliar, Test 1, spray on grape berries, disease control rating at 400 ppm / 100 ppm): 0 to 19%
pest or weed control at 400 ppm ([10]; Pyricularia oryzae, foliar, read-out: RICE BLAST, Test 1, foliar spray on rice, disease control rating at 400 ppm / 100 ppm): 20 to 89%
